Five compounds from patent US8304454B2, “Antimicrobial cellulose sponge and method of making” (3M Innovative Properties Company, priority 2007, dated 2012) can be followed below.

Series [1] is described as follows: Water activity of humectant solutions (AquaLab CX-2). It counts as physicochemical. As to the method:
(§1) Water activity (aw) is a measure of the amount of free water available to a microorganism to support growth. Water activity expresses the active portion of the water content as opposed to the total moisture content, which includes “bound water.” The measurements were conducted using the AquaLab CX-2 by Decagon Devices, Inc. by utilizing the chilled mirror/dew point hygrometric methodology for determining water activity. The cellulose sponge was cut into a disk having a 1.5″ inch diameter and 1/16 inch thick.
A commercially available magnesium chloride hexahydrate (MgCl2.6H2O) (EMD Chemical Company, Gibbstown, N.J.), sodium chloride (NaCl) (Fisher Scientific Company, Fair Lawn, N.J.), potassium chloride (KCl) (EMD Chemical Company, Gibbstown, N.J.), and glycerol (EMD Chemical Company, Gibbstown, N.J.) was mixed to obtain a desired concentration. The solution was measured for water activity using the AquaLab CX-2 by Decagon Devices, Inc. The water activity for those solutions is presented in Table 7.

A short description of series [2]: Water activity of humectants in cellulose sponges (AquaLab CX-2). It counts as physicochemical. The protocol:
Water Activity (aw) in the Cellulose Sponges
as §1
A prepared cellulose sponge was soaked for 20 minutes in one of the MgCl2 or NaCl humectant solutions from Example 3. After soaking, the cellulose sponge was squeezed out between squeeze rolls and then immediately placed into airtight plastic bags. The samples were tested for water activity within 24 hours.

For the compound `O=C([O-])[O-].[K+].[K+]` [Formulation K2CO3], the “Water Activity of humectant solution” value in series [1] (solution concentration 8%) turned out to be 0.973; in series [1] (solution concentration 10%), 0.960; in series [1] (solution concentration 12%) it was 0.957; in series [1] (solution concentration 16%), 0.943; in series [1] (solution concentration 20%) it was 0.925.

For the compound `OCC(O)CO` [Glycerol, glycerol], the “Water Activity of humectant solution” value turned out to be 0.975 in series [1] (solution concentration 8%); 0.971 in series [1] (solution concentration 10%); 0.966 in series [1] (solution concentration 12%); 0.962 in series [1] (solution concentration 14%); 0.955 in series [1] (solution concentration 16%); 0.950 in series [1] (solution concentration 18%). In addition, the “Water Activity of humectant solution” value in series [1] (solution concentration 20%) came to 0.944; in series [1] (solution concentration 22%), 0.939; in series [1] (solution concentration 24%), 0.934; in series [1] (solution concentration 50%), 0.811.

Regarding `[Cl-].[K+]` [KCl, potassium chloride], the “Water Activity of humectant solution” value in series [1] (solution concentration 8%) turned out to be 0.952; in series [1] (solution concentration 10%), 0.950; in series [1] (solution concentration 12%) it was 0.938; in series [1] (solution concentration 14%), 0.928; in series [1] (solution concentration 16%) it was 0.915; in series [1] (solution concentration 18%), 0.904. Besides, the “Water Activity of humectant solution” value in series [1] (solution concentration 20%) was determined as 0.891; in series [1] (solution concentration 22%), 0.875; in series [1] (solution concentration 24%), 0.859.

For `O.O.O.O.O.O.[Cl-].[Cl-].[Mg+2]` [MgCl2, magnesium chloride hexahydrate (MgCl2.6H2O)], the “Water Activity of humectant solution” value in series [1] (solution concentration 8%) stood at 0.944; in series [1] (solution concentration 10%), 0.926; in series [1] (solution concentration 12%) it was 0.904; in series [1] (solution concentration 14%) it was 0.876; in series [1] (solution concentration 16%), 0.847; in series [1] (solution concentration 18%) it was 0.841. The “Water Activity of humectant solution” value in series [1] (solution concentration 20%) was determined as 0.768. Besides, the “Water Activity of humectant in cellulose sponge” value is recorded as 0.913 in series [2] (10 wt. % of input solution), 0.896 in series [2] (12 wt. % of input solution) and 0.890 in series [2] (14 wt. % of input solution).

As to `[Cl-].[Na+]` [NaCl, sodium chloride], the “Water Activity of humectant solution” value in series [1] (solution concentration 8%) is recorded as 0.949; in series [1] (solution concentration 10%), 0.936; in series [1] (solution concentration 12%), 0.919; in series [1] (solution concentration 16%), 0.887; in series [1] (solution concentration 20%), 0.842. The “Water Activity of humectant in cellulose sponge” value in series [2] (10 wt. % of input solution) was found to be 0.926; in series [2] (12 wt. % of input solution), 0.921; in series [2] (14 wt. % of input solution) it was 0.900; in series [2] (16 wt. % of input solution), 0.881.
